Measurements: paper PMC12042053, “Activation and Allostery in a Fungal SAMHD1 Hydrolase: An Evolutionary Blueprint for dNTP Catabolism” (JACS Au, 2025)
One block for each molecule: values may come before it.

What was measured:
[1] = molecular target: T1, Ri SAMHD1 (Rhizophagus irregularis, UniProt A0A015K8Z8); assay: X-ray crystal structure, […] Å; type: binding; conditions: M9-Mn protein, excess Mn, 5 mM GTP; allosteric site at interface of three subunits; Ca ion bound
T1 construct: gene RirG_017260; full length (no SAM domain), N-terminal His6-tag, pET28a(+), expressed in E. coli T7 Express in M9 medium with Fe or Mn; purified as monomer and tetramer; crystal model residues 11-451

[2] = molecular target: T1, Ri SAMHD1; assay: nucleotide-induced tetramerization, glutaraldehyde cross-linking and SDS-PAGE; type: binding; conditions: monomer, 2 μM, pH 6.5, allosteric
[3] = molecular target: T1, Ri SAMHD1; assay: EPR of mixed-valent diiron cofactor; type: binding; conditions: M9-Fe protein 0.5 mM, ascorbate-reduced, 2.5 mM nucleotide, O2-free; active site
[4] = molecular target: T2, Ri SAMHD1 (Rhizophagus irregularis, UniProt A0A015K8Z8, R42A); assay: nucleotide-induced tetramerization, glutaraldehyde cross-linking and SDS-PAGE; type: binding; conditions: monomer, 2 μM, 1 mM Mn, pH 6.5; allosteric, cooperative
T2 construct: gene RirG_017260; full length (no SAM domain), N-terminal His6-tag, pET28a(+), expressed in E. coli T7 Express in M9 medium with Fe or Mn; purified as monomer and tetramer; crystal model residues 11-451

[5] = molecular target: T3, Ri SAMHD1 (Rhizophagus irregularis, UniProt A0A015K8Z8, D34A); assay: as above; type: binding; conditions: monomer, 2 μM, 1 mM Mn, pH 6.5; allosteric, cooperative
T3 construct: gene RirG_017260; full length (no SAM domain), N-terminal His6-tag, pET28a(+), expressed in E. coli T7 Express in M9 medium with Fe or Mn; purified as monomer and tetramer; crystal model residues 11-451

[6] = molecular target: T1, Ri SAMHD1; assay: steady-state hydrolysis, HPLC […] nm; type: biochemical; conditions: M9-Fe tetramer, 0.25 μM, 1 mM Mn, 5 mM dithionite, O2-free, fit with substrate/product inhibition, suggested allosteric, second site
[7] = molecular target: SAMHD1 protein from Rhizophagus irregularis, wild type (Rhizophagus irregularis)
[8] = substrate: Nc1nc2c(ncn2[C@H]2C[C@H](O)[C@@H](COP(=O)(O)OP(=O)(O)OP(=O)(O)O)O2)c(=O)[nH]1; assay: purified protein; type: biochemical, Rhizophagus irregularis; conditions: M9-Fe tetramer, 0.25 μM, 1 mM Mn, 5 mM dithionite, O2-free; fit with substrate/product inhibition

T3 sequence (A0A015K8Z8 entry or part of it D34A): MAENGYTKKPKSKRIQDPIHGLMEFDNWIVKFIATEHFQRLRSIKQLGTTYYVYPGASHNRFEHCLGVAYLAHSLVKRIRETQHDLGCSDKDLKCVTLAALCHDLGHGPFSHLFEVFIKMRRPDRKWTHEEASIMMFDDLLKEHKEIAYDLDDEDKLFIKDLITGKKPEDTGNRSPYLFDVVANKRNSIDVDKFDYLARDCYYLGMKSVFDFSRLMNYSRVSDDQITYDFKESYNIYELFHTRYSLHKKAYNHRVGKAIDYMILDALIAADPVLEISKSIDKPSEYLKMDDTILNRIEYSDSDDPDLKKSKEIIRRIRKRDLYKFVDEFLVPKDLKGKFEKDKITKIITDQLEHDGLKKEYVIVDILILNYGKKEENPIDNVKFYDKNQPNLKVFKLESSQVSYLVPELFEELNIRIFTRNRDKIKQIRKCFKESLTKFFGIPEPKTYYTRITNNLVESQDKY
T2 sequence (A0A015K8Z8 entry or part of it R42A): as the sequence (A0A015K8Z8 entry or part of it D34A) above, with A34D, R42A counted along it

EC50 ([2]; Mn): 31 ± 2 µM
Molecule: Nc1nc2c(ncn2[C@@H]2O[C@H](COP(=O)(O)OP(=O)(O)OP(=O)(O)O)[C@@H](O)[C@H]2O)c(=O)[nH]1 [GTP]
X-ray crystal structure, 2.27 Å [1]: only one nucleotide (GTP) is positioned within the interface of three subunits

Molecule: Nc1ncnc2c1ncn2[C@H]1C[C@H](O)[C@@H](COP(=O)(O)OP(=O)(O)OP(=O)(O)O)O1 [dATP]
EPR of mixed-valent diiron cofactor [3]: Addition of nonguanine-containing dNTPs (dATP, dCTP, and dTTP) increased the signal rhombicity

Molecule: Nc1ccn([C@H]2C[C@H](O)[C@@H](COP(=O)(O)OP(=O)(O)OP(=O)(O)O)O2)c(=O)n1 [dCTP]
EPR of mixed-valent diiron cofactor [3]: Addition of nonguanine-containing dNTPs (dATP, dCTP, and dTTP) increased the signal rhombicity

EC50 [4]: 605 ± 9 µM | EC50 [5]: 235 ± 5 µM | apparent KI [6]: 301 ± 24 µM | EC50 ([2]; 1 mM Mn): 21 ± 3 µM
Molecule: Nc1nc2c(ncn2[C@H]2C[C@H](O)[C@@H](COP(=O)(O)OP(=O)(O)OP(=O)(O)O)O2)c(=O)[nH]1 [dGTP]

Molecule: Cc1cn([C@H]2C[C@H](O)[C@@H](COP(=O)(O)OP(=O)(O)OP(=O)(O)O)O2)c(=O)[nH]c1=O [dTTP]
EPR of mixed-valent diiron cofactor [3]: Addition of nonguanine-containing dNTPs (dATP, dCTP, and dTTP) increased the signal rhombicity

apparent dNTP hydrolysis rates of the monomeric form on addition of GTP [7]: < 2.4 fold
Molecule: SAMHD1 protein from Rhizophagus irregularis, wild type (enzyme)

B1: Ri SAMHD1 (Rhizophagus irregularis DAOM 197198w) (protein)
chain: MAENGYTKKPKSKRIQDPIHGLMEFDNWIVKFIDTEHFQRLRSIKQLGTTYYVYPGASHNRFEHCLGVAYLAHSLVKRIRETQHDLGCSDKDLKCVTLAALCHDLGHGPFSHLFEVFIKMRRPDRKWTHEEASIMMFDDLLKEHKEIAYDLDDEDKLFIKDLITGKKPEDTGNRSPYLFDVVANKRNSIDVDKFDYLARDCYYLGMKSVFDFSRLMNYSRVSDDQITYDFKESYNIYELFHTRYSLHKKAYNHRVGKAIDYMILDALIAADPVLEISKSIDKPSEYLKMDDTILNRIEYSDSDDPDLKKSKEIIRRIRKRDLYKFVDEFLVPKDLKGKFEKDKITKIITDQLEHDGLKKEYVIVDILILNYGKKEENPIDNVKFYDKNQPNLKVFKLESSQVSYLVPELFEELNIRIFTRNRDKIKQIRKCFKESLTKFFGIPEPKTYYTRITNNLVESQDKY
notes: full length (no SAM domain), N-terminal His6-tag, pET28a(+), expressed in E. coli T7 Express in M9 medium with Fe or Mn; purified as monomer and tetramer; crystal model residues 11-451
Km [8]: 11 ± 3 µM
